Read-outs that look alike come from different tables or passages of the source.
Assays:
HsEH = molecular target: T1, HsEH (Homo sapiens, UniProt P34913); experiment: biochemical; type: biochemical; settings: PHOME substrate 50 μM, sEH 400 ng/ml, 37° C., 10 min, fluorescence 330/465 nm; read-out: HsEH IC50 (nM) Inhibitory activity against HsEH
T1 sequence (P34913 1-555): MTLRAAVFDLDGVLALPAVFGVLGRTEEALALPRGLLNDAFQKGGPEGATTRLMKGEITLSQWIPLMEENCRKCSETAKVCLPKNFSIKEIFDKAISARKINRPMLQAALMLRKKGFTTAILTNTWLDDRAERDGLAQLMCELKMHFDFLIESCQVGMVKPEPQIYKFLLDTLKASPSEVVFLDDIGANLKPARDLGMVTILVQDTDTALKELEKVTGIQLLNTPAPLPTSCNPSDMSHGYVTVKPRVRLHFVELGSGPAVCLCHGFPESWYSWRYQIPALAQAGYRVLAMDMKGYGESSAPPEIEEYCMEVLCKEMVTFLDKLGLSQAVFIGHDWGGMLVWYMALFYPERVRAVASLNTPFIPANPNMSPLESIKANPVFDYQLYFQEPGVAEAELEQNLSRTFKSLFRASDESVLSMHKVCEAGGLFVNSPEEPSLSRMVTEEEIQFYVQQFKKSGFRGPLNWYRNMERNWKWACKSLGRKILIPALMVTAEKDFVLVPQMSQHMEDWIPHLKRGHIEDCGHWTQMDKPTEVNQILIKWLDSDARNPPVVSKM
Description: (§1) Detection principle: a specific substrate, (3-phenyl-oxy)-acetic acid cyano-(6-methoxy-naphthalen-2-yl)methyl ester, namely PHOME, is non-fluorescent but can be hydrolyzed under the action of sEH enzyme to generate a product 6-methoxy-2-naphthaldehyde. The 6-methoxy-2-naphthaldehyde can emit fluorescence with a wavelength of 465 nm under 330 nm light wave excitation, and an intensity of the detected fluorescence signal is inversely proportional to an inhibitory effect on the sEH enzyme. Based on the above principle, the inhibition rates of samples with different concentrations were calculated compared with the positive control group. The IC50 value of the compound was calculated based on the inhibition rate and concentration using SPSS 20 software.
(§2) 25 mM Tris-HCl buffer (pH=7.4, containing 0.1 mg/mL BSA): […] BAS was added to 12.5 mL of 1 M Tris-HCl buffer, followed by diluting with purified water, and a resulting mixture was adjusted to a pH value of 7.4 with hydrochloric acid, and diluted to 500 mL.
(§3) PHOME solution: 0.79 mg PHOME was dissolved in 106 μL DMSO to obtain a 20 mM PHOME solution, which was diluted to ⅓ mM with Tris-HCl buffer before use.
(§4) sEH solution: sEH (5 mg/mL) stock solution was stored in a refrigerator at −80° C. and diluted to 4 μg/mL with 25 mM Tris-HCl buffer before use.
(§5) A sample powder to be tested was dissolved in DMSO to a 20 mM solution, stored in a refrigerator at −20° C. for later use, and diluted with Tris-HCl buffer to corresponding concentrations when used.
(§6) Experimental design: solvent group, 100% activity group (A), inhibitor group (B), positive control group (C), as shown in Table 1.
(§7) Three replicate wells were set for each sample, and the average value of the three replicate wells was the fluorescence value (F) of the compound to be tested. […] The IC50 value of the compound was calculated based on the inhibition rate and concentration using SPSS 20 software.

MsEH = molecular target: T2, MsEH (Mus musculus, UniProt P34914); experiment: sEH inhibitory activity, PHOME fluorescence assay (MsEH); type: biochemical
T2 sequence (P34914 1-554): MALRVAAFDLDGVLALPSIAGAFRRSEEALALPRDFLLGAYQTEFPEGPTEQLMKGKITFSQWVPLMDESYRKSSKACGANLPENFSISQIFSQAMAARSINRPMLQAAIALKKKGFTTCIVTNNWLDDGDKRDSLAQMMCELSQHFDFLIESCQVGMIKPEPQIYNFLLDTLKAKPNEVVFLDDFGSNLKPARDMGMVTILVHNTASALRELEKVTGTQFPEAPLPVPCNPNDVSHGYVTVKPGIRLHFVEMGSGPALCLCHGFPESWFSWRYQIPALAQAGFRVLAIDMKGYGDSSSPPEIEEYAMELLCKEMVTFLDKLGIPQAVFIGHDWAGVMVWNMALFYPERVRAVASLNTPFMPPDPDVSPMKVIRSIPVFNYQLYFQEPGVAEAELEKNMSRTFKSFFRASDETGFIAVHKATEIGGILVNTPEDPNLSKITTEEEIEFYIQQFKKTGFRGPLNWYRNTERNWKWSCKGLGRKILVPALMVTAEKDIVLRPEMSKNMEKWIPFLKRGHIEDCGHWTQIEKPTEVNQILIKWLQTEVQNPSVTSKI
Description: as §1, §2, §3, §4, §5, §6, §7

[1] = PHOME substrate 50 μM, sEH 400 ng/ml, 37° C., 10 min, fluorescence 330/465 nm, read-out: MsEH IC50 (nM) Inhibitory activity against MsEH

Structure (SMILES) | IC50 (HsEH) [nM] | IC50 (MsEH; [1]) [nM] | IC50 (MsEH) [nM]
C[C@]12C[C@@H]3C[C@](C)(C1)C[C@@](NC(=O)Nc1ccc(CN4CCC[C@H](C(=O)O)C4)cc1F)(C3)C2 [CL-5, (S)-1-(4-(3-((1r,3R,5S,7S)-3,5-dimethyladamantan-1-yl)ureido)-3-fluorobenzyl) piperidine-3-carboxylic acid] | 2.3 | 0.61 | –
CCN(CC)C(=O)[C@H]1CCCN(C(=O)c2ccc(NC(=O)NC34CC5CC(C)(CC(C)(C5)C3)C4)c(F)c2)C1 [CC-110, (S)-1-(4-(3-((1r,3R,5S,7S)-3,5-dimethyladamantan-1-yl)ureido)-3-fluorobenzoyl)-N,N-diethylpiperidine-3-carboxamide] | 0.35 | – | 0.38
CC12CC3CC(C)(C1)CC(NC(=O)Nc1ccc(CN4CCC[C@H](C(=O)NCCO)C4)cc1F)(C3)C2 [CL-114, (S)-1-(4-(3-((1r,3R,5S,7S)-3,5-dimethyladamantan-1-yl)ureido)-3-fluorobenzyl)-N-(2-hydroxyethyl) piperidine-3-carboxamide] | 0.63 | – | 0.18
CCC(C)C(=O)N1CCCN(C(=O)[C@H]2CCCN(C(=O)c3ccc(NC(=O)NC45CC6CC(C)(CC(C)(C6)C4)C5)c(F)c3)C2)CC1 (stereo partly drawn) [GL-104, 1-((1r,3R,5S,7S)-3,5-dimethyladamantan-1-yl)-3-(2-fluoro-4-((3S)-3-(4-(2-methylbutanoyl)-1,4-diaza-1-carbonyl)piperidine-1-carbonyl)phenyl) urea] | 1.4 | – | 0.9
CC12CC3CC(C)(C1)CC(NC(=O)Nc1ccc(C(=O)N[C@H]4CC[C@H](C(=O)NC(CO)(CO)CO)CC4)cc1F)(C3)C2 [ZT-115, N-((1r,4R)-4-((1,3-dihydroxy-2-(hydroxymethyl)propan-2-yl)carbamoyl)cyclohexyl)-4-(3-((1r,3R,5S,7r)-3,5-dimethyladamantan-1-yl)ureido)-3-fluorobenzamide] | 0.35 | – | 0.12
CC12CC3CC(C)(C1)CC(NC(=O)Nc1ccc(CN4CCC[C@H](C(=O)NC(CO)CO)C4)cc1F)(C3)C2 [CL-112, (S)—N-(1,3-dihydroxypropan-2-yl)-1-(4-(3-((1r,3R,5S,7S)-3,5-dimethyladamantan-1-yl)ureido)-3-fluorobenzyl) piperidine-3-carboxamide] | 0.28 | – | 0.35
CCC(=O)N1CCC(CC(=O)N2CCCN(Cc3ccc(NC(=O)NC45CC6CC(C)(CC(C)(C6)C4)C5)c(F)c3)CC2)CC1 [GL-1, 1-((1r,3R,5S,7r)-3,5-dimethyladamantan-1-yl)-3-(2-fluoro-4-((4-(2-(1-propionylpiperidin-4-yl)acetyl)-1,4-diaza-1-yl)methyl)phenyl) urea] | 0.33 | – | 0.07
CC12CC3CC(C)(C1)CC(NC(=O)Nc1ccc(CN4CCC(C(=O)N(CCO)CCO)CC4)cc1F)(C3)C2 [CL-109, 1-(4-(3-((1r,7r)-3,5-dimethyladamantan-1-yl)ureido)-3-fluorobenzyl)-N,N-bis(2-hydroxyethyl) piperidine-4-carboxamide] | 6.72 | – | 0.55
CC(O)CNC(=O)[C@H]1CCCN(C(=O)c2ccc(NC(=O)NC34CC5C[C@@](C)(C3)C[C@](C)(C5)C4)c(F)c2)C1 (stereo partly drawn) [CC-113, (3S)-1-(4-(3-((1r,3R,5S,7S)-3,5-dimethyladamantan-1-yl)ureido)-3-fluorobenzoyl)-N-(2-hydroxypropyl) piperidine-3-carboxamide] | 0.28 | 0.23 | –
CC12CC3CC(C)(C1)CC(NC(=O)Nc1ccc(CN4CCC(C(=O)NC(CO)(CO)CO)CC4)cc1F)(C3)C2 [CL-117, N-(1,3-dihydroxy-2-(hydroxymethyl)propan-2-yl)-1-(4-(3-((1r,7r)-3,5-dimethyladamantan-1-yl)ureido)-3-fluorobenzyl) piperidine-4-carboxamide] | 6.51 | – | 0.12
CC12CC3CC(C)(C1)CC(NC(=O)Nc1ccc(CN4CCC[C@H](C(=O)N(CCO)CCO)C4)cc1F)(C3)C2 [CL-107, (S)-1-(4-(3-((1r,3R,5S,7S)-3,5-dimethyladamantan-1-yl)ureido)-3-fluorobenzyl)-N,N-bis(2-hydroxyethyl) piperidine-3-carboxamide] | 0.28 | – | 0.29
CCN(CC)C(=O)C1CCN(C(=O)c2ccc(NC(=O)NC34CC5CC(C)(CC(C)(C5)C3)C4)c(F)c2)CC1 [CC-111, 1-(4-(3-((1r,3R,5S,7r)-3,5-dimethyladamantan-1-yl)ureido)-3-fluorobenzoyl)-N,N-diethylpiperidine-4-carboxamide] | 2.2 | – | 0.53
CCC(C)C(=O)N1CCC(CC(=O)N2CCCN(Cc3ccc(NC(=O)NC45CC6CC(C)(CC(C)(C6)C4)C5)c(F)c3)CC2)CC1 [GL-2, 1-((1r,3R,5S,7r)-3,5-dimethyladamantan-1-yl)-3-(2-fluoro-4-((4-(2-(1-(2-methylbutyryl)piperidin-4-yl)acetyl)-1,4-diaza-1-yl)methyl)phenyl) urea] | 0.77 | – | 0.16

Reference: patent publication US20260224548A1 (priority 2022, published 2026)
